In patent publication US5750362A, “Methods for identifying substances with a potential herbicidal or growth-regulating action by means of plant transporter proteins, the use of the transporter proteins, and substances with a herbicidal and growth-regulating action” (BASF Aktiengesellschaft, priority 1993, dated 1998):

Key:
[1] = target: T1, amino-acid transporter AAP2 (Arabidopsis thaliana, UniProt Q38967); assay: Uptake of radiolabeled L-proline by yeast mutant 22457d-AAP2 expressing the plant amino-acid transporter; format: cell-based; conditions: L-[14C]-proline uptake, read-out: Activity relative to control [%]
T1 construct: expressed in transfected cells; host or cells: Saccharomyces cerevisiae mutant 22574d (also printed 22457d)
T1 sequence (Q38967 1-493): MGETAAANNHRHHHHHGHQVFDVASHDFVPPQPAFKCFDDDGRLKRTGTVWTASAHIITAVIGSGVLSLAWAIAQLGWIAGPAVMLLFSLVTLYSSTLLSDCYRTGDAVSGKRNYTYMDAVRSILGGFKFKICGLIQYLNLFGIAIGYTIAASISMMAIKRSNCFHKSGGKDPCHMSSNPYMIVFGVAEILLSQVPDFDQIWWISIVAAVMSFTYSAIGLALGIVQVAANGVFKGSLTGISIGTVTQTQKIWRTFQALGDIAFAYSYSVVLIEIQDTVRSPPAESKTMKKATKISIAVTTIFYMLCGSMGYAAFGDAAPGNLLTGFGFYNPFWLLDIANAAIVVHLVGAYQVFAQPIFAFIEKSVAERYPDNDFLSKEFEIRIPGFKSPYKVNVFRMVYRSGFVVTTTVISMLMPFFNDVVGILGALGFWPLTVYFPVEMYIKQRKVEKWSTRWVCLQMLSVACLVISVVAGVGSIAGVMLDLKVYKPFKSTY
Method: Transporter investigations are carried out on the yeast mutant 22574d (Jauniaux & Grenson, Eur. J. Biochem. 190: 39-44, 1990), which harbors a mutation in the gene for amino-acid permease, and on the yeast mutant JT 16 (Tanaka and Fink, Gene 38: 205-214, 1985) which is incapable of histidine uptake, for identification of inhibitors of plant amino-acid transporters. These mutants are transformed with cDNA sequences which code for plant amino-acid transporters and lead to expression of functional transporters in the yeast cells. The cDNA sequences are cDNA sequences which code for the amino-acid transporters AAP1 and AAP2 from Arabidopsis thaliana (Frommer et al., 1993, Proc. Natl. Acad. Sci. USA 90: 5944-5948; Kwart et al., 1993, Plant J. 4:993-1002). For the measurements, cells of these mutants are cultured in minimal medium (NAAG+5 mmol/l proline) at 28° C. and harvested in the logarithmic phase (OD600 =0.6). The cells are spun down in a centrifuge at 4000 rpm and 4 degrees Celsius for 10 minutes and washed 2× with AUB buffer (modified AAB buffer, Ljungdahl et al.). The cell concentration is adjusted to an OD600 of 25 in AUB buffer.
100 μl portions of the cell suspension are mixed with 100 μl of a 1 mmol/l L-proline solution (18.5 kBq of L-[14C]-proline) and various concentrations of the appropriate substance to be investigated. After 20, 60, 120 and 180 seconds, a 50 μl aliquot is removed, diluted in 4 ml -of ice-cold AUB buffer and filtered through glass fever [sic] filter. In order to remove nonspecifically bound L-[14C]-proline, the cells are washed 2× with 4 ml of ice-cold water each time. The radioactivity retained on the glass filter is then measured in a liquid scintillation counter. The radioactivity reflects the amount of radiolabeled proline taken up by the cells. Uptake of radiolabeled proline without addition of a potential inhibitor is determined as one control. Cells of each of the mutants 22574d and JY 16 which have not been transformed with cDNA sequences coding for plant amino-acid transporters are used as further control. Results of measurements of this type on the mutants 22457d-AAP2 which expresses the amino-acid transporter AAP2 from Arabisopsis [sic] thaliana are shown in the following table.
For the investigations, yeast cells of the strain 22457d were transformed with a cDNA sequence which codes for the amino-acid transporter AAP2, and the uptake of radiolabeled proline in the presence of various substances was determined. The various substances tested, their concentration, and the activity of the transporter, shown as percentage activity of the control with which no potential inhibitors were added, are indicated.

[2] = target: T2, sucrose transporter P62 (StSUT1) (Solanum tuberosum, UniProt Q43653); assay: [14C]-sucrose uptake by yeast strain SUSY-7-P62 (StSUT1) expressing the potato sucrose transporter; format: cell-based; conditions: [14C]-sucrose uptake, pH 3.8, read-out: Activity relative to the control [%]
T2 construct: whole-cell [14C]-sucrose uptake; no tag or borders given
T2 sequence (Q43653 1-516): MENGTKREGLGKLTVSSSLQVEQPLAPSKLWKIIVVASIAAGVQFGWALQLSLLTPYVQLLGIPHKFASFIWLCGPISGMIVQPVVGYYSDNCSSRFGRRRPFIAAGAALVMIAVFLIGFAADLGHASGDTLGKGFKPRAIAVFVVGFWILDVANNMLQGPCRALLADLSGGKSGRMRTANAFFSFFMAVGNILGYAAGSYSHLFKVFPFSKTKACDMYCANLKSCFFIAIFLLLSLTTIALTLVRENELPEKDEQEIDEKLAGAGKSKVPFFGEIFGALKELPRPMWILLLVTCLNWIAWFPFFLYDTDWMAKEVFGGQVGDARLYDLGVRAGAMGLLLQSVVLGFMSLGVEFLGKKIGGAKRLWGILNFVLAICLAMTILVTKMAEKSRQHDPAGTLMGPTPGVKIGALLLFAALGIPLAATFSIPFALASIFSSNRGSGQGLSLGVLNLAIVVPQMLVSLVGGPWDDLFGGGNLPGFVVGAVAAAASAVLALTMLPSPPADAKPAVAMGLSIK
Description: Yeast cells of the strain SUSY7 (Riesmeier et al., 1992, EMBO J. 11: 4705-4713) are used to identify substances which have an inhibitory effect on sucrose transporters from potato. Cells of this strain are transformed with a cDNA sequence which codes for the sucrose transporter P62 (StSUT1) from potato (WO 94/00574, Riesmeier et al., 1993, Plant Cell 5:1591-1598) and which ensures expression of a functional transporter in the cells. The resulting yeast strain was called SUSY-7-P62 (StSUT1). The yeast cells are cultured in minimal medium (SD +2% (w/v) sucrose, pH 3.8) at 28° C. and harvested in the logarithmic phase (OD600 =0.6). The cells are spun down at 4000 rpm for 10 minutes and washed twice with SD medium. A cell concentration of c=50 g/l in SD medium is adjusted according to the wet weight of the cells, and 200 Al aliquot fractions are taken. Before the actual reaction, the cells are incubated in 10 mM glucose for 5 min and adjusted to pH 3.8 with MES buffer. The reaction is started by adding 200 Al of a 0.2 mmol/l [14C]-sucrose solution (3 mCi/mmol) in SD medium (pH 3.8). After 20, 60, 120, 180 and 240 seconds, 70 μl portions of the suspension are removed and pipetted into 4 ml of ice-cold water in order to stop the reaction. The cells are filtered off on glass fiber filters and washed twice with ice-cold water. The radioactivity on the filters is subsequently determined in a liquid scintillation counter. The substances to be tested are added 30 seconds before addition of the sucrose. The uptake of radiolabeled sucrose without addition of a potential inhibitor is determined as one control. Cells of the strain SUSY7 which are not transformed with cDNA sequences coding for a sucrose transporter from potato are employed as further control.
The various tested substances, their concentration and the activity of the transporter, shown as percentage activity of the control in which no potential inhibitors were added, are indicated.

remaining activity at 1000 µM ([1]; tested substance 1 mM) [%]	remaining activity at 500 µM ([2]; tested substance 0.5 mM) [%]	Compound	remaining activity at 10 µM ([1]; tested substance 10 μM) [%]	remaining activity at 10 µM ([2]; tested substance 10 μM) [%]
–	–	N#CC(C#N)=NNc1cccc(Cl)c1 [CCCP]	15.6 ± 2.1	9
3.1 ± 1.2	6	CCOC(=O)OC(=O)OCC [DEPC, diethyl pyrocarbonate]	–	–
